Values joined by “and” are separate entries in the source; they are usually repeats but may differ in a detail not shown here. Equal values may be shown once.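 Exposure lasted 48 hours, with cells grown in 96-well plates and compounds tested at five concentrations. GI50 = concentration required for 50% inhibition of growth. Definition used: TGI = concentration required for complete inhibition of growth.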
Assays:
Assay in all cases: NCI anticancer screen, dose series, 48 h
[1] = tested on: HCC-2998 colon
[2] = tested on: SF-295 CNS
[3] = tested on: UACC-62 melanoma
[4] = tested on: CAKI-1 renal
[5] = tested on: K-562 leukemia
[6] = tested on: SK-MEL-28 melanoma
[7] = tested on: OVCAR-4 ovarian
[8] = tested on: RPMI-8226 leukemia
[9] = tested on: IGROV1 ovarian
[10] = tested on: BT-549 breast
[11] = tested on: ACHN renal
[12] = tested on: T-47D breast
[13] = tested on: SF-539 CNS
[14] = tested on: SK-MEL-2 melanoma
[15] = tested on: KM12 colon
[16] = tested on: U251 CNS
[17] = tested on: OVCAR-8 ovarian
[18] = tested on: SNB-75 CNS
[19] = tested on: DU-145 prostate
[20] = tested on: MDA-MB-231 breast
[21] = tested on: HS 578T breast
[22] = tested on: 786-0 renal
[23] = tested on: SW-620 colon
[24] = tested on: OVCAR-5 ovarian
[25] = tested on: HOP-62 NSCLC
[26] = tested on: NCI-H460 lung
[27] = tested on: M14 melanoma
[28] = tested on: NCI/ADR-RES ovarian
[29] = tested on: NCI-H23 lung
[30] = tested on: HL-60(TB) leukemia
[31] = tested on: TK-10 renal
[32] = tested on: A498 renal
[33] = tested on: MALME-3M melanoma
[34] = tested on: HOP-92 NSCLC
[35] = tested on: SN12C renal
[36] = tested on: MCF7 breast
[37] = tested on: RXF 393 renal
[38] = tested on: SNB-19 CNS
[39] = tested on: LOX IMVI melanoma
[40] = tested on: UACC-257 melanoma
[41] = tested on: A549 NSCLC
[42] = tested on: HCT-116 colon
[43] = tested on: OVCAR-3 ovarian
[44] = tested on: NCI-H522 lung
[45] = tested on: HT29 colon
[46] = tested on: SK-OV-3 ovarian
[47] = tested on: EKVX NSCLC
[48] = tested on: NCI-H226 lung
[49] = tested on: CCRF-CEM leukemia
[50] = tested on: MDA-MB-435
[51] = tested on: UO-31 renal
[52] = tested on: SK-MEL-5 melanoma
[53] = tested on: HCT-15 colon
[54] = tested on: PC-3 prostate
[55] = tested on: COLO 205 colon
[56] = tested on: MOLT-4 leukemia
[57] = tested on: SF-268 CNS

With `O=C(Cc1ccc(-c2ccc(OCCN3CCOCC3)cc2)cn1)NCc1ccccc1` the GI50 [1] was 31.6 nM and 166 nM, the GI50 [2] was 29.6 nM and 34.7 nM and the TGI [2] was over 100000 nM. The GI50 [3] was 40.8 nM, the TGI [3] was over 100000 nM and the GI50 [4] was 70.3 nM and 50.6 nM. The TGI [4] was over 100000 nM, the GI50 [5] was 25.5 nM and 26.4 nM and the TGI [5] was over 100000 nM. For the same compound, the GI50 [6] was 46.2 nM and 211 nM, the TGI [6] was over 100000 nM and the TGI [7] was over 100000 nM. The GI50 [8] was 42.7 nM and 35.8 nM, the TGI [8] was over 50200 nM and the GI50 [9] was 94.4 nM and 70.8 nM. The TGI [9] was over 100000 nM, the GI50 [10] was 159 nM and 76.7 nM and the GI50 [11] was 85.7 nM and 81.1 nM. For the same compound, the TGI [11] was over 100000 nM, the TGI [12] was 55900 nM and > 10000 nM and the GI50 [13] was 28.3 nM and 30.1 nM. The GI50 [14] was 105 nM and 60 nM, the TGI [14] was over 100000 nM and the GI50 [15] was 32 nM and 38.7 nM. For the same compound, the TGI [15] was over 7880 nM, the GI50 [16] was 41.7 nM and 37.7 nM and the TGI [16] was over 100000 nM. For the same compound, the GI50 [17] was 46.6 nM and 49.3 nM, the TGI [17] was over 36200 nM and the GI50 [18] was 33.3 nM and 21.8 nM. The TGI [18] was over 100000 nM, the GI50 [19] was 32.4 nM and 38.7 nM and the GI50 [20] was 57.7 nM and 83.3 nM. The TGI [20] was over 100000 nM, the GI50 [21] was 38.1 nM and 28.4 nM and the TGI [21] was over 100000 nM. The GI50 [22] was 67.5 nM and 85.7 nM, the TGI [22] was over 100000 nM and the GI50 [23] was 37.6 nM and 38.8 nM. The TGI [23] was over 100000 nM, the GI50 [24] was 60.5 nM and 119 nM and the TGI [24] was over 100000 nM. The GI50 [25] was 37.2 nM and 66 nM, the TGI [25] was over 88400 nM and the GI50 [26] was 35.5 nM and 37.1 nM. The TGI [26] was 16200 nM and > 10000 nM, the GI50 [27] was 28.5 nM and the TGI [27] was 1760 nM. The GI50 [28] was 33.4 nM and 34.1 nM, the TGI [28] was over 100000 nM and the GI50 [29] was 45.8 nM and 49.3 nM. The TGI [29] was over 100000 nM, the GI50 [30] was 29.4 nM and 30.9 nM and the TGI [31] was over 100000 nM. The GI50 [32] was 24.7 nM and 27.7 nM, the TGI [32] was 331 nM and 82.2 nM and the GI50 [33] was 150 nM. The TGI [33] was over 100000 nM, the GI50 [34] was 54.3 nM and 353 nM and the TGI [34] was 8590 nM and > 7160 nM. For the same compound, the GI50 [35] was 84.5 nM and 61.1 nM, the TGI [35] was over 100000 nM and the GI50 [36] was < 16.4 nM and 35.6 nM. It also gave a TGI [36] of over 100000 nM, a GI50 [37] of 10.8 nM and a TGI [37] of 49.7 nM. The GI50 [38] was 52.8 nM and 44.8 nM, the TGI [38] was over 100000 nM and the GI50 [39] was 61.2 nM and 63.6 nM. For the same compound, the TGI [39] was over 100000 nM, the GI50 [40] was 112 nM and 711 nM and the TGI [40] was 94900 nM and > 10000 nM. The GI50 [41] was 40.5 nM and 53.7 nM, the TGI [41] was over 100000 nM and the GI50 [42] was 37.3 nM and 39.9 nM. For the same compound, the TGI [42] was over 100000 nM, the GI50 [43] was 35.2 nM and the GI50 [44] was 22.3 nM and 24.2 nM. The TGI [44] was 83.1 nM, the GI50 [45] was 34.3 nM and 34.2 nM and the TGI [45] was over 37600 nM. For the same compound, the GI50 [46] was 30.3 nM and 54.9 nM, the TGI [46] was 7010 nM and > 10000 nM and the TGI [47] was over 100000 nM. For the same compound, the GI50 [48] was 244 nM and 112 nM, the TGI [48] was over 100000 nM and the GI50 [49] was 39.7 nM and 43.3 nM. It also gave a TGI [49] of over 100000 nM, a GI50 [50] of 16.2 nM and a TGI [50] of 39.2 nM. The GI50 [51] was 82.1 nM and 200 nM, the TGI [51] was over 100000 nM and the GI50 [52] was 28.6 nM and 39.9 nM. The TGI [52] was 220 nM and 1250 nM, the GI50 [53] was 29.4 nM and 38.7 nM and the TGI [53] was over 100000 nM. The GI50 [54] was 44.6 nM and 45.6 nM, the TGI [54] was over 100000 nM and the GI50 [55] was 29.1 nM and 36.1 nM. For the same compound, the TGI [55] was 85.8 nM and 632 nM, the GI50 [56] was 99.9 nM and 68.5 nM and the TGI [56] was over 100000 nM. The GI50 [57] was 83 nM and 332 nM and the TGI [57] was over 100000 nM.

Reference: PubChem BioAssay (NCI)
